Laboratory results from PMC9065877, “Safety, tolerability and pharmacokinetics of the oligomer modulator anle138b with exposure levels sufficient for therapeutic efficacy in a murine Parkinson model: A randomised, double-blind, placebo-controlled phase 1a trial” (EBioMedicine, 2022).

Experiment: Safety and tolerability (adverse events, laboratory, vital signs, ECG) in phase 1a trial in healthy subjects
Assay type: in vivo, human
Description: The primary objective was to assess the safety and tolerability of single (SAD) and multiple (MAD) ascending doses of anle138b to healthy subjects in the fasted state and to assess the safety and tolerability of single doses of anle138b in both the fasted and fed state (FES). To this end, adverse events (AEs), clinical laboratory tests, vital signs, electrocardiograms (ECGs), QT interval corrected for heart rate using Fridericia's formula (QTcF), and physical examination findings were recorded. Participants were instructed to report all potential AEs immediately to the on-site personnel and were assessed by a physician before each dose of study drug. In addition, a physical examination of the relevant body system was performed in the event that a subject reports any new symptoms or AEs. AEs were defined following standard criteria, which are described in the protocol. The detailed parameters and sampling schedule regarding haematology, clinical chemistry, ECG, blood pressure, heart rate and PK are provided in the supplement (supplement 3). Any clinically significant abnormality in these assessments, including changes from baseline, were needed to be reported as an AE.
AEs and medications were coded using the Medical Dictionary for Regulatory Activities (MedDRA) (v22·1). An independent coding review was performed within the Data Sciences department. Clinical chemistry and haematology data (and other safety laboratory data) were collected by a central laboratory (The Doctors Laboratory) and transferred electronically to Quotient Sciences. The list of parameters is provided in supplement 2. All demographic details and sample dates were cross-referenced with the corresponding data on the study database. Data was monitored by an external entity (Wirral Clinical Consultancy Ltd, Heswall, UK). Monitoring included the conduct of a site initiation visit, interim monitoring visits and a close-out visit. The database was closed after all queries had been resolved.
The study was exploratory and no formal sample size calculation was made. Based on experience from previous studies of similar design, eight subjects per cohort were enrolled for parts 1 (SAD) and 2 (MAD) and a total of twelve subjects for part 3 (FES). Populations and analysis sets were determined for safety and PK data after database lock using the criteria defined in the reporting and analysis plan. The safety population and safety analysis set for SAD and MAD were defined after database lock but prior to study unblinding. Statistical analysis and production of summary tables, figures and listings for all safety data (AEs, vital signs, ECGs and safety laboratory assessments) including changes from baseline as required in this study were performed using the statistical package SAS (v9·4). Additional statistics was provided for PK-related data including coefficient of variation (CV%), geometric mean, geometric CV%, and the number n of subjects that were included in the natural logarithmic transformation). In SAD and MAD, dose proportionality was assessed. Formal statistical analysis was performed on the log-transformed PK parameters AUC(0-last), AUC(0-inf), and Cmax for SAD (day 1), and AUC(0-tau) and Cmax for MAD (day 1 and day 7) to assess dose proportionality using the following power model: loge (AUC or Cmax) = µ + βx loge (dose). The estimate obtained for β is a measure of dose proportionality. The estimate of β together with its 90% confidence interval (CI) (βl, βu) was used to quantify the degree of non-proportionality. In MAD, formal statistical analysis was performed on the PK parameters AUC(0-tau) and Cmax to assess dose accumulation. Log-transformed AUC(0-tau) and Cmax was subjected to a mixed-effects model with treatment (dose level), day (day 1 or 7) and treatment-by-day interaction as fixed effects and subject as a random effect. […]

[1] = Food effect cohort, anle138b 150 mg fed and fasted, N=12
[2] = MAD cohorts, anle138b 100-300 mg QD 7 days, N=18
[3] = SAD cohorts, anle138b 50-300 mg single dose, N=24

Brc1cccc(-c2cc(-c3ccc4c(c3)OCO4)n[nH]2)c1 [anle138b, 3-(1,3-benzodioxol-5-yl)-5-(3-bromophenyl)-1H-pyrazole]
Dose dependency of AE reporting (50 to 300 mg): no dose dependency | Adverse events by attribution to study treatment: Definite, number of events (Food effect cohort, N=12): 0 | Adverse events by attribution to study treatment: Not related, number of events (%) (Food effect cohort, N=12): 6 (100) | Adverse events by attribution to study treatment: Possible, number of events (%) (Food effect cohort, N=12): 0 | Adverse events by attribution to study treatment: Probable, number of events (Food effect cohort, N=12): 0 | Adverse events by grade: Mild, number of events (%) (Food effect cohort, N=12): 6 (100) | Adverse events by grade: Moderate, number of events (%) (Food effect cohort, N=12): 0 | Adverse events by outcome: Recovered, number of events (%) (Food effect cohort, N=12): 6 (100) | Eye disorders (ocular hyperaemia, vision blurred): number of events [patients affected %] (Food effect cohort, N=12): 0 | Gastrointestinal disorders (diarrhea, nausea): number of events [patients affected %] (Food effect cohort, N=12): 0 | General disorders and administration site conditions (Chest discomfort, fatigue, medical device site reaction): number of events [patients affected %] (Food effect cohort, N=12): 1 [8·3] | Infections and infestations (Nasopharyngitis, rhinitis): number of events [patients affected %] (Food effect cohort, N=12): 0 | Injury, poisoning and procedural complications (procedural dizziness): number of events [patients affected %] (Food effect cohort, N=12): 2 [16·7] | Musculosceletal and connective tissue disorders (Back pain): number of events [patients affected %] (Food effect cohort, N=12): 0 | Nervous system disorders (headache, paraestesia): number of events [patients affected %] (Food effect cohort, N=12): 3 [25] | Psychiatric disorders (abnormal dreams): number of events [patients affected %] (Food effect cohort, N=12): 0 | Number of patients with adverse event(s) [%] [1]: 5 [41·7] | Number of patients with no adverse event [%] [1]: 7 [58·3] | Adverse events by attribution to study treatment: Definite, number of events (MAD cohorts, N=18): 0 | Adverse events by attribution to study treatment: Not related, number of events (%) (MAD cohorts, N=18): 9 (90) | Adverse events by attribution to study treatment: Possible, number of events (%) (MAD cohorts, N=18): 1 (10) | Adverse events by attribution to study treatment: Probable, number of events (MAD cohorts, N=18): 0 | Adverse events by grade: Mild, number of events (%) (MAD cohorts, N=18): 9 (90) | Adverse events by grade: Moderate, number of events (%) (MAD cohorts, N=18): 1 (10) | Adverse events by outcome: Recovered, number of events (%) (MAD cohorts, N=18): 10 (100) | Eye disorders (ocular hyperaemia, vision blurred): number of events [patients affected %] (MAD cohorts, N=18): 1 [5·6] | Gastrointestinal disorders (diarrhea, nausea): number of events [patients affected %] (MAD cohorts, N=18): 1 [5·6] | General disorders and administration site conditions (Chest discomfort, fatigue, medical device site reaction): number of events [patients affected %] (MAD cohorts, N=18): 1 [5·6] | Infections and infestations (Nasopharyngitis, rhinitis): number of events [patients affected %] (MAD cohorts, N=18): 1 [5·6] | Injury, poisoning and procedural complications (procedural dizziness): number of events [patients affected %] (MAD cohorts, N=18): 0 | Musculosceletal and connective tissue disorders (Back pain): number of events [patients affected %] (MAD cohorts, N=18): 2 [11·1] | Nervous system disorders (headache, paraestesia): number of events [patients affected %] (MAD cohorts, N=18): 4 [16·7] | Psychiatric disorders (abnormal dreams): number of events [patients affected %] (MAD cohorts, N=18): 0 | Number of patients with adverse event(s) [%] [2]: 6 [33·3] | Number of patients with no adverse event [%] [2]: 12 [66·7] | Moderate AE (MAD part, 100 mg anle138b): an episode of back pain | AE considered possibly related to the study medication (MAD part, 200 mg anle138b, assessed prior to unblinding): one event of headache | Adverse events by attribution to study treatment: Definite, number of events (SAD cohorts, N=24): 0 | Adverse events by attribution to study treatment: Not related, number of events (%) (SAD cohorts, N=24): 5 (100) | Adverse events by attribution to study treatment: Possible, number of events (%) (SAD cohorts, N=24): 0 | Adverse events by attribution to study treatment: Probable, number of events (SAD cohorts, N=24): 0 | Adverse events by grade: Mild, number of events (%) (SAD cohorts, N=24): 5 (100) | Adverse events by grade: Moderate, number of events (%) (SAD cohorts, N=24): 0 | Adverse events by outcome: Recovered, number of events (%) (SAD cohorts, N=24): 5 (100) | Eye disorders (ocular hyperaemia, vision blurred): number of events [patients affected %] (SAD cohorts, N=24): 1 [4·2] | Gastrointestinal disorders (diarrhea, nausea): number of events [patients affected %] (SAD cohorts, N=24): 0 | General disorders and administration site conditions (Chest discomfort, fatigue, medical device site reaction): number of events [patients affected %] (SAD cohorts, N=24): 0 | Infections and infestations (Nasopharyngitis, rhinitis): number of events [patients affected %] (SAD cohorts, N=24): 1 [4·2] | Injury, poisoning and procedural complications (procedural dizziness): number of events [patients affected %] (SAD cohorts, N=24): 0 | Musculosceletal and connective tissue disorders (Back pain): number of events [patients affected %] (SAD cohorts, N=24): 1 [4·2] | Nervous system disorders (headache, paraestesia): number of events [patients affected %] (SAD cohorts, N=24): 2 [8·3] | Psychiatric disorders (abnormal dreams): number of events [patients affected %] (SAD cohorts, N=24): 0 | Number of patients with adverse event(s) [%] [3]: 4 [16·7] | Number of patients with no adverse event [%] [3]: 20 [83·3] | Tolerability and compound-related side effects (all tested doses (up to 300 mg)): excellent tolerability and no compound-related side effects | Changes in safety assessments (laboratory values, vital signs, physical examinations, ECG) (any subject included in the trial): no clinically significant individual changes from baseline or notable trends
